Experimental data as given in patent publication US20090117089A1, “GLYCOLIPIDS AND ANALOGUES THEREOF AS ANTIGENS FOR NK T CELLS” (The Rockefeller University, priority 2005, published 2009).

Legend:
CD8+ P1CTL T cells = test: Proliferation and differentiation of P1A-specific P1CTL CD8+ T cells; format: in vivo, mouse
Procedure: CD8^+ P1A-specific, T cells were prepared from meshed cell suspensions of TCR transgenic lymph nodes and spleen by depleting B220, CD4, F4/80 and MHC class II-expressing cells using sheep anti-rat IgG Dynabeads®. For CFSE labeling (Molecular Probes), the cells at 10^7/ml in PBS were incubated with 5 μM CFSE for 10 min at 37° C. The reaction was stopped by washing three times with PBS.
2×10^7 irradiated J558-Ld^− cells, were injected i.v. or s.c. into Balb/c mice with or without α-Gal Cer as a DC maturation stimulus. In some experiments we compared α-Gal Cer to agonistic anti-CD40 mAb (1C10, 25 μg i.p.) or the toll like receptor ligands, poly IC ([…], Invivogen) or lipopolysaccharide (20 μgm, Sigma). The mice had been given CFSE-labeled PICTL CD8^+ T cells i.v. 1 d earlier, or were naive animals. In some experiments, mice were sacrificed 3 d later, and T cell division and activation in spleen were analyzed by flow cytometry. Additionally, 7 d or 2 months later, 5×10^6 live J558 tumor cells were inoculated subcutaneously. 5×10^6 Meth A fibrosarcoma was used as a control tumor for challenge. Tumor cell growth was measured with calipers every other day. Mice were scored positive for tumor as soon as tumors became palpable and grew progressively. Mice were euthanized when tumor size exceeded 400 mm^2.
T-cell division, phagocytosis of CFSE-labeled tumor cells and acquisition of cell surface-activation markers were determined by flow cytometry. Briefly, spleens were harvested and low-density splenocytes were stained with CD11c-APC and CD8α-PE, CD11b-PE, B220-PE or CD4-PE for the up-take examination. For in vivo proliferation of P1CTL T-cells, spleens were harvested and the splenocytes suspension was staining with CD8α-Cy, Vα8α-PE, CD25-PE, CD62L-PE. For intracellular cytokine staining, splenocytes were stimulated in vitro with 1 µg/ml P1A peptide in 5 μg/ml brefeldin A (Sigma-Aldrich) at 37° C. for 4 hrs. The cells were first stained with CD8α-Cy-Chrome™, fixed and permeabilized with cytofix-cytoperm buffer (BD Biosciences), and stained with PE conjugated mAbs to IL-2 or IFN-γ.

[1] = molecular target: T1, human CD1d dimers / invariant T cell receptor of human NKT cells (Homo sapiens, UniProt P15813); test: In vitro CD1d-dimer assay using a human NKT cell line; format: binding; conditions: dimers loaded with 40 μM glycolipid
T1 construct: soluble divalent human CD1d-IgG1 fusion protein; IgG1 (immunoglobulin fusion partner that makes the protein divalent); purchased BD Pharmingen / BD Biosciences (DimerX)
Procedure: One mg of soluble divalent human CD1d-IgG1 fusion protein (human CD1d-IgG1 dimers, BD Pharmingen) were incubated overnight with […] of each glycolipid at 32° C. and at neutral pH according to the manufacturer's protocol. The glycolipid-loaded CD1d-IgG1 dimers were incubated with human NKT cells at 4° C. for 60 minutes, followed by incubation with PE-coupled anti-mouse IgG1 mAb (A85-1). The cells were also surface stained with a PerCP-coupled anti-CD3 mAb (BD Pharmingen, San Diego, Calif.).
CD1d-dimer binding assay. CD1d dimer (DimerX, BD Biosciences) was incubated overnight with 40 μM of each glycolipid at 32° C. and at neutral pH according to the manufacturer's protocol. The loaded CD1d dimers were incubated with a human NKT cell line at 4° C. for 60 min, followed by incubation with APC-conjugated secondary antibody. The cells were also co-stained with mAbs against the invariant NKT cell receptor (Vα24/Vβ11). At least 2×10^5 lymphocyte-gated events were acquired to allow reliable estimation of NKT cells.

binding of loaded CD1d dimers to Vα24/Vβ11 invariant TCR expressing NKT cells [1] | Compound | stimulation of naïve CD8+ P1CTL T cells in culture by isolated DCs (CD8+ P1CTL T cells; DCs from mice given dying J558 with α-Gal Cer) | P1CTL proliferation in vivo after DC transfer (CD8+ P1CTL T cells; DCs isolated 4 hours after immunization, 3 days) | IFN-γ and IL-2 production on restimulation with P1A peptide (CD8+ P1CTL T cells; T cells stimulated in vivo in presence of α-Gal Cer) | P1CTL T cell proliferation in vivo (CD8+ P1CTL T cells; irradiated J558− plus α-Gal Cer vs J558− alone, 3 days)
 | CCCCCCCCCCCCCCCCCCCCCCCCCC(=O)N[C@@H](CO[C@H]1O[C@H](CO)[C@H](O)[C@H](O)[C@H]1O)[C@H](O)[C@H](O)CCCCCCCCCCCCCC [α-GalCer, 2S,3S,4R-1-O(α-galactopyranosyl)-2(N-hexacosanoylamino)-1,3,4-octadecanetriol] | much more effective at stimulating proliferation of naïve CD8^+ T cells in culture | P1CTL proliferation was detected only in response to DCs from mice given tumor with α-Gal Cer | significantly more IFN-γ and IL-2 | proliferated more extensively
to a lesser extent than α-GalCer | 3-O-sulfo-alpha-galactosylceramide [Compound 24] |  |  |  | 
